The values below come from patent EP0346187B1, “Novel GTP binding protein and method for production thereof” (MITSUBISHI KASEI CORPORATION, priority 1988, dated 1989).

Experiment [1] concerns the target T1, G protein (Smg p21), molecular weight of 22,000, purified from bovine brain (Bos taurus, UniProt P62833).
T1 construct: a crude membrane fraction was extracted with sodium cholate from bovine brain; from tissue; host or cells: bovine brain (crude membrane fraction, cholate extract)
T1 sequence (P62833 1-181 limits assumed): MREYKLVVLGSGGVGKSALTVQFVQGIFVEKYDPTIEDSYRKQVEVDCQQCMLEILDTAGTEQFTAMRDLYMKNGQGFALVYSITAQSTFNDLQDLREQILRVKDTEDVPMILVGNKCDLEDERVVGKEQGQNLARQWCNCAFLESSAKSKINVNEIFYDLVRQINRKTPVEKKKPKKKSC
Description: GTP hydrolyzing activity of purified G protein (Smg p21). In kind it is biochemical. The text has this: (§1) • (a) Crude G protein with molecular weight (relative molecular weight : Mr) of 20,000 to 25,000 was obtained in accordance with the method of Kikuchi, et al. (Journal of the Biological Chemistry, 263, p 2897 - 2904, 1988). Specifically, a crude membrane fraction was extracted with sodium cholate from bovine brain, and the fraction was fractionated on Ultrogel AcA-44 column chromatography to separate and obtain a fraction at the second peak among two peaks showing GTP binding activity. The fraction thus obtained was purified on phenyl Sepharose CL-4B column chromatography and then further fractionated on hydroxyapatite column chromatography to separate and obtain a fraction at the first peak. Then, the first peak fraction was fractionated on Mono Q HR 5/5 column chromatography and the fraction at the first peak was separated and collected to obtain a crude G protein with Mr of 20,000 - 25,000. • (b) The crude G protein obtained in (a) above was subjected to Mono S HR 5/5 column chromatography equilibrated with a buffer solution of 50 mM sodium acetate (pH, 5.0) containing 1 mM EDTA, 1mM dithiothreitol, 5 mM magnesium chloride and 0.6 % CHAPS (3- [(3-cholamidopropyl) dimethylammonio]-1-propane sulfonate). After washing with 5 ml of the same buffer solution, it was eluted out by the same buffer solution (20 ml) with a concentration gradient of sodium chloride (0 - 1.0 M). […]

Experiment [2] has as its target T1, G protein (Smg p21), molecular weight of 22,000, purified from bovine brain. Briefly: GTP binding activity of purified G protein (Smg p21).
Source text: as §1

On to `Nc1nc2c(ncn2[C@@H]2O[C@H](COP(=O)(O)OP(=O)(O)OP(=O)(O)O)[C@@H](O)[C@H]2O)c(=O)[nH]1` [GTP, guanosine-5-triphosphate], for which, in experiment [1], the GTP Hydrolyzing Activity (number of turnovers) worked out at 0.005 min⁻¹. In addition, the Kd (commonly the equilibrium constant for the complex coming apart) in experiment [2] (purified G protein (Smg p21) from bovine brain) is 30 ± 6 nM. Take `CCN1C(=O)C=CC1=O` [N-ethylmaleimide]: the “Effect of N-ethylmaleimide on GTP Binding Activity” value in experiment [2] (no concentration stated, presence of dithiothreitol blocks the inhibition) is recorded as “inhibited”.
